The results in this text go back to US8252935B2, “Piperidinyl and piperazinyl modulators of γ-secretase” (Janssen Pharmaceutica N.V., priority 2007, dated 2012).

The target in the assay is γ-secretase (Homo sapiens, UniProt P49768). In words: Screening for γ-secretase-modulating activity in SKNBE2 cells carrying APP 695 wild type (assay of Citron et al 1997). Conditions: SKNBE2, @ 1 uM; SKNBE2 cells carrying the APP 695 wild type. In kind it is cell-based. How it is done: Screening was carried out using SKNBE2 cells carrying the APP 695—wild type, grown in DMEM/NUT-mix F12 (HAM) provided by Gibco (cat no. 31330-38) containing 5% Serum/Fe supplemented with 1% non-essential amino acids. Cells were grown to near confluency. The screening was performed using the assay as described in Citron et al (1997) Nature Medicine 3: 67.

`CC(C)CCN1C(c2cc(-c3ccc(C(F)(F)F)cc3)cc(C(F)(CC(C)C)C(=O)O)c2)CCCC1C(F)(F)F` (stereo not drawn) [Example 16, 2-Fluoro-4-methyl-2-{5-[1-(3-methyl-butyl)-6-trifluoromethyl-piperidin-2-yl]-4′-trifluoromethyl-biphenyl-3-yl}-pentanoic acid] had an inhibition at 1 µM of 0%.
In turn, `CC(C)C[C@H](C(=O)O)c1cc(-c2ccc(C(F)(F)F)cc2)cc([C@H]2CCC[C@@H](C(F)(F)F)N2)c1` [Example 19, (S) 4-Methyl-2-[4′-trifluoromethyl-5-(6-trifluoromethyl-piperidin-2-yl)-biphenyl-3-yl]-pentanoic acid] came in with an inhibition at 1 µM of 48%.
For the compound `CC(C)CCN1C(c2cc(-c3ccc(C(F)(F)F)cc3)cc(C(F)(F)C(=O)O)c2)CCCC1C(F)(F)F` (stereo not drawn) [Example 22, Difluoro-{5-[1-(3-methyl-butyl)-6-trifluoromethyl-piperidin-2-yl]-4′-trifluoromethyl-biphenyl-3-yl}-acetic acid], at 1 µM the inhibition was 35%.
In turn, `CC(C)CC(C(=O)O)c1cc(-c2ccc(C(F)(F)F)cc2)cc(C2CCC(C(F)(F)F)CN2)c1` (stereo not drawn) [Example 23, 4-Methyl-2-[4′-trifluoromethyl-5-(5-trifluoromethyl-piperidin-2-yl)-biphenyl-3-yl]-pentanoic acid] came in with an inhibition at 1 µM of 30%.
With `CC(C)CC(C(=O)O)c1cc(-c2ccc(C(F)(F)F)cc2)cc(C2CCC(C(F)(F)F)N(Cc3ccncc3)C2)c1` (stereo not drawn) [Example 25, 4-Methyl-2-[5-(1-pyridin-4-ylmethyl-6-trifluoromethyl-piperidin-3-yl)-4′-trifluoromethyl-biphenyl-3-yl]-pentanoic acid], the inhibition at 1 µM came out at 23%.
As to `CC(C)CC(C(=O)O)c1cc(-c2ccc(C(F)(F)F)cc2)cc(C2CCC(C(F)(F)F)N(Cc3cccc(C(F)(F)F)c3)C2)c1` (stereo not drawn) [Example 28, 4-Methyl-2-{4′-trifluoromethyl-5-[6-trifluoromethyl-1-(3-trifluoromethyl-benzyl)-piperidin-3-yl]-biphenyl-3-yl}-pentanoic acid], 1 µM produced 68% inhibition.
Consider `CCC(CC)N1CCCC(c2cc(-c3ccc(C(F)(F)F)cc3)cc(C(CC(C)C)C(=O)O)c2)C1` (stereo not drawn) [Example 33, 2-{5-[1-(1-Ethyl-propyl)-piperidin-3-yl]-4′-trifluoromethyl-biphenyl-3-yl}-4-methyl-pentanoic acid], for which the inhibition at 1 µM stood at 22%.
The result for `CC(C)CC(C(=O)O)c1cc(-c2ccc(C(F)(F)F)cc2)cc(C2CCCN(S(=O)(=O)c3cccc(C(F)(F)F)c3)C2)c1` (stereo not drawn) [Example 40, 4-Methyl-2-{4′-trifluoromethyl-5-[1-(3-trifluoromethyl-benzenesulfonyl)-piperidin-3-yl]-biphenyl-3-yl}-pentanoic acid] reads 70%; that for `CC(C)CC(C(=O)O)c1cc(-c2ccc(C(F)(F)F)cc2)cc(C2CCCN(S(=O)(=O)c3cccc4cnccc34)C2)c1` (stereo not drawn) [Example 41, 2-{5-[1-(Isoquinoline-5-sulfonyl)-piperidin-3-yl]-4′-trifluoromethyl-biphenyl-3-yl}-4-methyl-pentanoic acid], 70%; that for `CC(C)CC(C(=O)O)c1cc(-c2ccc(C(F)(F)F)cc2)cc(C2CCCN(S(=O)(=O)c3ccccc3C(F)(F)F)C2)c1` (stereo not drawn) [Example 42, 4-Methyl-2-{4′-trifluoromethyl-5-[1-(2-trifluoromethyl-benzenesulfonyl)-piperidin-3-yl]-biphenyl-3-yl}-pentanoic acid], 63%.
For `CC(C)CC(C(=O)O)c1cc(-c2ccc(C(F)(F)F)cc2)cc(C2CCCN(C(=O)c3ccc(C(F)(F)F)cc3)C2)c1` (stereo not drawn) [Example 43, 4-Methyl-2-{4′-trifluoromethyl-5-[1-(4-trifluoromethyl-benzoyl)-piperidin-3-yl]-biphenyl-3-yl}-pentanoic acid] the value was 55%; for `CC(C)CC(C(=O)O)c1cc(-c2ccc(C(F)(F)F)cc2)cc(C2CCCN(Cc3ccc(-n4cccc4)cc3)C2)c1` (stereo not drawn) [Example 44, 4-Methyl-2-{5-[1-(4-pyrrol-1-yl-benzyl)-piperidin-3-yl]-4′-trifluoromethyl-biphenyl-3-yl}-pentanoic acid], 46%; for `CC(C)CC(C(=O)O)c1cc(-c2ccc(C(F)(F)F)cc2)cc(C2CCCN(Cc3ccc4ccccc4c3)C2)c1` (stereo not drawn) [Example 46, 4-Methyl-2-[5-(1-naphthalen-2-ylmethyl-piperidin-3-yl)-4′-trifluoromethyl-biphenyl-3-yl]-pentanoic acid], 57%.
For the compound `CC(C)CC(C(=O)O)c1cc(-c2ccc(C(F)(F)F)cc2)cc(C2CCCN(Cc3ccc(OC(F)(F)F)cc3)C2)c1` (stereo not drawn) [Example 47, 4-Methyl-2-{5-[1-(4-trifluoromethoxy-benzyl)-piperidin-3-yl]-4′-trifluoromethyl-biphenyl-3-yl}-pentanoic acid], the inhibition at 1 µM amounted to 61%.
As to `CC(C)CC(C(=O)O)c1cc(-c2ccc(C(F)(F)F)cc2)cc(C2CCCN(Cc3ccc(Oc4ccc(F)cc4)cc3)C2)c1` (stereo not drawn) [Example 48, 2-(5-{1-[4-(4-Fluoro-phenoxy)-benzyl]-piperidin-3-yl}-4′-trifluoromethyl-biphenyl-3-yl)-4-methyl-pentanoic acid], the inhibition at 1 µM came to 59%.
For `CC(C)CC(C(=O)O)c1cc(-c2ccc(C(F)(F)F)cc2)cc(C2CCCN(Cc3ccc4nnsc4c3)C2)c1` (stereo not drawn) [Example 49, 2-[5-(1-Benzo[1,2,3]thiadiazol-6-ylmethyl-piperidin-3-yl)-4′-trifluoromethyl-biphenyl-3-yl]-4-methyl-pentanoic acid] the value was 54%; for `CC(C)CC(C(=O)O)c1cc(-c2ccc(C(F)(F)F)cc2)cc(C2CCCN(Cc3ccc4nnn(C)c4c3)C2)c1` (stereo not drawn) [Example 50, 4-Methyl-2-{5-[1-(3-methyl-3H-benzotriazol-5-ylmethyl)-piperidin-3-yl]-4′-trifluoromethyl-biphenyl-3-yl}-pentanoic acid], 17%.
Compound `COc1ccc(CN2CCCC(c3cc(-c4ccc(C(F)(F)F)cc4)cc(C(CC(C)C)C(=O)O)c3)C2)cc1C(F)(F)F` (stereo not drawn) [Example 51, 2-{5-[1-(4-Methoxy-3-trifluoromethyl-benzyl)-piperidin-3-yl]-4′-trifluoromethyl-biphenyl-3-yl}-4-methyl-pentanoic acid] displayed an inhibition at 1 µM of 48%.
As to `CC(C)CC(C(=O)O)c1cc(-c2ccc(C(F)(F)F)cc2)cc(C2CCCN(Cc3cc(C(C)(C)C)cc(C(C)(C)C)c3)C2)c1` (stereo not drawn) [Example 52, 2-{5-[1-(3,5-Di-tert-butyl-benzyl)-piperidin-3-yl]-4′-trifluoromethyl-biphenyl-3-yl}-4-methyl-pentanoic acid], testing at 1 µM gave an inhibition of 58%.
`CC(C)CC(C(=O)O)c1cc(-c2ccc(C(F)(F)F)cc2)cc(C2CCCN(Cc3cc(C(F)(F)F)cc(C(F)(F)F)c3)C2)c1` (stereo not drawn) [Example 53, 2-{5-[1-(3,5-Bis-trifluoromethyl-benzyl)-piperidin-3-yl]-4′-trifluoromethyl-biphenyl-3-yl}-4-methyl-pentanoic acid]: 1 µM produced 57% inhibition.
`CC(C)CC(C(=O)O)c1cc(-c2ccc(C(F)(F)F)cc2)cc(C2CCCN(C(c3ccccc3)c3ccccc3)C2)c1` (stereo not drawn) [Example 54, 2-[5-(1-Benzhydryl-piperidin-3-yl)-4′-trifluoromethyl-biphenyl-3-yl]-4-methyl-pentanoic acid] registered an inhibition at 1 µM of 80%.

By inhibition is commonly meant the percentage by which the read-out fell short of the control. Low values mean little suppression, high ones strong suppression.
